According to US20070060599A1, “Crystalline forms of [1S-(1alpha, 3alpha, 4beta)]-2-amino-1,9-dihydro-9-[4-hydroxy-3-(hydroxymethyl)-2-methylenecyclopentyl]-6H-purin-6-one” (priority 2005, published 2007):

Tested on: hepatitis B virus infection
Assay: once daily administration of low dose entecavir pharmaceutical compositions to treat hepatitis B virus infection
Format: in vivo, human
Procedure: In a yet another aspect, the invention provides pharmaceutical compositions comprising Form N-2 and/or Form IP.3-4 crystals of [1S-(1α,3α,4β)]-2-amino-1,9-dihydro-9-[4-hydroxy-3-(hydroxymethyl)-2-methylenecyclopentyl]-6H-purin-6-one and at least one pharmaceutically acceptable carrier or excipient. The pharmaceutical compositions may contain a low dose of from about 0.001 mg to about 25 mg of the active drug ingredient for once daily administration to treat hepatitis B virus infection in an adult human patient or a pediatric patient. Preferred pharmaceutical compositions contain from about 0.01 mg to about 10 mg of the active drug ingredient and most preferred pharmaceutical compositions contain from about 0.01 to about 5 mg of the active drug ingredient. Such preferred and most preferred pharmaceutical compositions are also administered once daily to treat hepatitis B virus infection in an adult or a pediatric patient.

Compound: C=C1[C@H](CO)[C@@H](O)C[C@@H]1n1cnc2c(=O)[nH]c(N)nc21 [entecavir, [1S-(1α,3α,4β)]-2-amino-1,9-dihydro-9-[4-hydroxy-3-(hydroxymethyl)-2-methylenecyclopentyl]-6H-purin-6-one monohydrate]
- effectiveness in treating hepatitis B virus infection: effective
- undesirable side effects (compared with the high dose regimen of U.S. Pat. No. 5,206,244): without undesirable side effects
